The record followed here is patent US20260007758A1, “SO[…]-2 RECEPTOR (SST2R) NON-PEPTIDE DRUG CONJUGATES AND USES THEREOF” (Crinetics Pharmaceuticals, Inc., priority 2024, published 2026).

Holding throughout (type): cell-based
The target in test [1] is T1, human somatostatin receptor subtype 2 (Homo sapiens, UniProt P30874).
T1 construct: expressed in transfected cells
As to the kind of experiment: Functional assay for SSTR2 agonists (HTRF cAMP). The note with it: CHO-K1 cells stably expressing human SST2; NKH477-stimulated cAMP; 20 min at 37 C; read-out: hSST2 cAMP Avg EC50. Put shortly:
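Agonist activity read as fall in intracellular cAMP: HTRF 665/620 nm ratio regressed to a cAMP standard curve, EC50 fitted. Stable human SSTR2 CHO-K1 cells exposed 20 min at 37 °C to compound, final concentrations typically 0-10,000 nM.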
In general terms: Time-resolved FRET reads energy transfer from a long-lived donor to a nearby acceptor.

A further test addresses T2, SST2 (Homo sapiens, UniProt P30874).
T2 construct: host or cells: PathHunter CHO-K1 SST2 cells
Kind of test: PathHunter CHO-K1 SST2 Internalization Assay. The note with it: PathHunter CHO-K1 SST2 cells; 90 min at 37 C; luminescence; read-out: Internalization EC50. Put shortly:
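Four-parameter nonlinear fits of background-corrected luminescence (duplicate means) gave IC50s. NDCs were serially diluted 1:3 over 11 points from a 10 uM final top concentration and incubated 90 min at 37 C with human SST2 CHO-K1 cells plated 48 h earlier at 2500/well. Beta-Glo read-out developed 60 min at RT.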

Test [2] deals with NCI-H524 human small cell lung cancer cells. As to the kind of experiment: H524 assay: inhibition of cell proliferation (CellTiter Glo). The note with it: 2 h treatment, washout, additional 70 h incubation. The procedure, abridged:
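Proliferation was measured by CellTiter Glo 70 h after a washout that followed a 2 h pulse of NDC. Doses were an 11-point, two-fold dilution series from 1 uM. IC50 was fitted with a four-parameter model to luminescence-based % inhibition relative to control cells.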

Structures are written as SMILES. pEC50: −log10 of the molar value.

Broadly, the pEC50 is the EC50 on a negative log10 scale, so that one unit is a factor of ten.

T2 sequence (P30874 whole entry): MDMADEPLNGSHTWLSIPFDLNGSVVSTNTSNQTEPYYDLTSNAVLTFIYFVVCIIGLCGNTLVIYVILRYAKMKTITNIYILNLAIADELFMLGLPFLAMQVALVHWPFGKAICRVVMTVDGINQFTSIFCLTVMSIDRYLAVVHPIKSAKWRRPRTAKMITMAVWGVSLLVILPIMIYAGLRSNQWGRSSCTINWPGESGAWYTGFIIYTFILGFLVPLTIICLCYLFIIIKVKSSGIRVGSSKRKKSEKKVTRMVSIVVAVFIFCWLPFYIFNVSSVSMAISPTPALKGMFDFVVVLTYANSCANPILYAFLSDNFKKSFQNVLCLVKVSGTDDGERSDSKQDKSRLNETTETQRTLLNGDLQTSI
T1 sequence (P30874 whole entry): as above

As to `CC[C@H](C)[C@@H]([C@@H](CC(=O)N1CCC[C@H]1[C@H](OC)[C@@H](C)C(=O)N[C@H](C)[C@@H](O)c1ccccc1)OC)N(C)C(=O)[C@@H](NC(=O)[C@H](C(C)C)N(C)C(=O)OCc1ccc(NC(=O)[C@H](CCCNC(N)=O)NC(=O)[C@@H](NC(=O)c2cc(NCCOCCC(=O)NCCNc3ncc(-c4cc(C)cc(F)c4)c(N4CCC(N)CC4)c3-c3nc4ccc(Cl)cc4[nH]3)cc(C(=O)NCCN(CC(=O)O)CC(=O)O)c2)C(C)C)cc1)C(C)C` [Compound 189], the pEC50 in test [1] is 9.40; at SST2 it was 8.12; in test [2], 5.66.
On to `CC[C@H](C)[C@@H]([C@@H](CC(=O)N1CCC[C@H]1[C@H](OC)[C@@H](C)C(=O)N[C@H](C)[C@@H](O)c1ccccc1)OC)N(C)C(=O)[C@@H](NC(=O)[C@H](C(C)C)N(C)C(=O)OCc1ccc(NC(=O)[C@H](CCCNC(N)=O)NC(=O)[C@@H](NC(=O)c2cc(OCCOCCOCCOCCOCCC(=O)NCCNc3ncc(-c4cc(C)cc(F)c4)c(N4CCC(N)CC4)c3-c3nc4ccc(Cl)cc4[nH]3)cc(C(=O)NCC(=O)O)c2)C(C)C)cc1)C(C)C` [Compound 161], for which the pEC50 was 9.49 in test [1], 8.04 on SST2 and 7.20 in test [2].
`CC[C@H](C)[C@@H]([C@@H](CC(=O)N1CCC[C@H]1[C@H](OC)[C@@H](C)C(=O)N[C@H](C)[C@@H](O)c1ccccc1)OC)N(C)C(=O)[C@@H](NC(=O)[C@H](C(C)C)N(C)C(=O)OCc1ccc(NC(=O)[C@H](CCCNC(N)=O)NC(=O)[C@@H](NC(=O)[C@H](CCC(=O)O)NC(=O)CCOCCC(=O)NCCNc2ncc(-c3cc(C)cc(F)c3)c(N3CCC(N)CC3)c2-c2nc3ccc(Cl)cc3[nH]2)C(C)C)cc1C(F)(F)F)C(C)C` [Compound 2]: the pEC50 was 9.24 in test [1], 8.07 at SST2 and 5.60 in test [2].
In the case of `CC[C@H](C)[C@@H]([C@@H](CC(=O)N1CCC[C@H]1[C@H](OC)[C@@H](C)C(=O)N[C@H](C)[C@@H](O)c1ccccc1)OC)N(C)C(=O)[C@@H](NC(=O)[C@H](C(C)C)N(C)C(=O)OCc1ccc(NC(=O)[C@H](CCCNC(N)=O)NC(=O)[C@@H](NC(=O)CCOCCOCCOCCOCCC(=O)NCCCNc2ncc(-c3cc(C)cc(F)c3)c(N3CCC(N)CC3)c2-c2nc3ccc(Cl)cc3[nH]2)C(C)C)cc1)C(C)C` [Compound 197], the pEC50 was 9.57 in test [1], 8.19 at SST2 and 7.92 in test [2].
As to `CC[C@H](C)[C@@H]([C@@H](CC(=O)N1CCC[C@H]1[C@H](OC)[C@@H](C)C(=O)N[C@H](C)[C@@H](O)c1ccccc1)OC)N(C)C(=O)[C@@H](NC(=O)[C@H](C(C)C)N(C)C(=O)OCc1ccc(NC(=O)[C@H](CCCNC(N)=O)NC(=O)[C@@H](NC(=O)C[C@@H](N)C(=O)NCCOCCC(=O)NCCNc2ncc(-c3cc(C)cc(F)c3)c(N3CCC(N)CC3)c2-c2nc3ccc(Cl)cc3[nH]2)C(C)C)cc1C(=O)N1CC(C(=O)O)C1)C(C)C` [Compound 73], the pEC50 in test [1] is 10.22; at SST2, 8.51; in test [2], 6.96.
Consider `CC[C@H](C)[C@@H]([C@@H](CC(=O)N1CCC[C@H]1[C@H](OC)[C@@H](C)C(=O)N[C@H](C)[C@@H](O)c1ccccc1)OC)N(C)C(=O)[C@@H](NC(=O)[C@H](C(C)C)N(C)C(=O)OCc1ccc(NC(=O)[C@H](CCCNC(N)=O)NC(=O)[C@@H](NC(=O)c2cc(NC(=O)CCCC(=O)NCCNc3ncc(-c4cc(C)cc(F)c4)c(N4CCC(N)CC4)c3-c3nc4ccc(Cl)cc4[nH]3)cc(C(=O)NC[C@@H](N)C(=O)O)c2)C(C)C)cc1)C(C)C` [Compound 170], for which the values for the pEC50 (in test [1]; on SST2; in test [2]) were 9.51, 7.92 and 7.66, respectively.
As to `CC[C@H](C)[C@@H]([C@@H](CC(=O)N1CCC[C@H]1[C@H](OC)[C@@H](C)C(=O)N[C@H](C)[C@@H](O)c1ccccc1)OC)N(C)C(=O)[C@@H](NC(=O)[C@H](C(C)C)N(C)C(=O)OCc1ccc(NC(=O)[C@H](CCCNC(N)=O)NC(=O)[C@@H](NC(=O)CN(C)C(=O)CCOCCC(=O)NCCNc2ncc(-c3cc(C)cc(F)c3)c(N3CCC(N)CC3)c2-c2nc3ccc(Cl)cc3[nH]2)C(C)C)cc1C(=O)NCC(=O)O)C(C)C` [Compound 71], the pEC50 is 9.85 in test [1], 8.12 on SST2 and 7.00 in test [2].
Taken in the same sequence, the figures for `CC[C@H](C)[C@@H]([C@@H](CC(=O)N1CCC[C@H]1[C@H](OC)[C@@H](C)C(=O)N[C@H](C)[C@@H](O)c1ccccc1)OC)N(C)C(=O)[C@@H](NC(=O)[C@H](C(C)C)N(C)C(=O)OCc1ccc(NC(=O)[C@H](CCCNC(N)=O)NC(=O)[C@@H](NC(=O)CCOCCC(=O)NCCNc2ncc(-c3cc(C)cc(F)c3)c(N3CCC(N)CC3)c2-c2nc3ccc(Cl)cc3[nH]2)C(C)C)cc1C(=O)N[C@@H](CCCCNC(=O)CCCCc1ccc(I)cc1)C(=O)O)C(C)C` [Compound 246] were 10.00, 8.82 and 7.13.
